The target of one assay is T1, HDAC-1 (Homo sapiens, UniProt Q13547).
T1 construct: made in house
The assay is described as follows: Deacetylase fluorescence assay (HDAC-1). The format is biochemical. In outline: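 Flag-tagged HDAC-1 immunopurified from overexpressing 293-derived cells was assayed in 25 mM Tris-HCl pH 8.0, 137 mM NaCl, 2.7 mM KCl, 1 mM MgCl2 with Fluor de Lys substrate (50 uM) and inhibitor. Deacetylation was read by fluorescence after trypsin developer containing TSA.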

Assay [1] relates to p21 promoter (p21-luc) in H1299 cells. The assay is described as follows: p21 promoter luciferase assay using stably transfected p21-luc in H1299 cells. The format is cell-based. As to conditions: Homo sapiens, NCI-H1299. In outline: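 H1299 cells stably carrying a p21 promoter–luciferase reporter, grown in RPMI 1640/10% FBS under Geneticin selection, seeded about 5000 cells/well and incubated overnight at 37 C. Compound exposure lasted one day. Cells were then lysed and luciferase luminescence measured.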

13 compounds from patent US20100022514A1, “Heterocycle Compounds and Methods of Use Thereof” (NORVARTIS AG, priority 2006, published 2010) can be followed below.

Where two headings read alike, the source gives them in different places.

Usually IC50 stands for the point on the concentration scale where inhibition reaches its midpoint. The AC50 is the concentration giving half of the maximal activity seen. Low readings indicate greater potency, high ones weaker potency.

T1 sequence (Q13547 whole entry): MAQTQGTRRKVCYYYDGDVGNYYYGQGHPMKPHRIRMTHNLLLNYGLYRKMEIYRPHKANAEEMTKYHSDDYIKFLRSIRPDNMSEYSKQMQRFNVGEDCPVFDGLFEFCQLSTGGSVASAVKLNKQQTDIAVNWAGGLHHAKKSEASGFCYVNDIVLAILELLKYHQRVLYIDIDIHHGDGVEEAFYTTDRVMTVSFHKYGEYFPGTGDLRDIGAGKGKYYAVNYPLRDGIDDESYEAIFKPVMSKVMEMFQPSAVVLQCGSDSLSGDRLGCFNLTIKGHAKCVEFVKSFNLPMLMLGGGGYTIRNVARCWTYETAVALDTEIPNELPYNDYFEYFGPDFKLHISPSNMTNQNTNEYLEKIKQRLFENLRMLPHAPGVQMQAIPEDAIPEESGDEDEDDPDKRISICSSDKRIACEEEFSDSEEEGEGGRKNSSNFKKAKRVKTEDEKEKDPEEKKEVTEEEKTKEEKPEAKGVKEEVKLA

For `COc1ccc(C(=O)N2CCc3ccc(CCC(=O)NO)cc3C2)cc1` [Example 58, N-Hydroxy-3-[2-(4-methoxy-benzoyl)-1,2,3,4-tetrahydro-isoquinolin-7-yl]-propionamide], the IC50 on HDAC-1 (read-out: HDAC-1 IC50) lay within 100 to 1000 nM. In assay [1], this compound yielded an AC50 of more than 1000 nM.

Consider `COc1cccc(C(=O)N2CCc3ccc(/C=C/C(=O)NO)cc3C2)c1` [Example 59, (E)-N-Hydroxy-3-[2-(3-methoxy-benzoyl)-1,2,3,4-tetrahydro-isoquinolin-7-yl]-acrylamide], for which, at HDAC-1 (read-out: HDAC-1 IC50), the IC50 lay within 100 to 1000 nM. Besides, the AC50 in assay [1] was more than 1000 nM.

On to `COc1cccc(C(=O)N2CCc3ccc(CCC(=O)NO)cc3C2)c1` [Example 60, N-Hydroxy-3-[2-(3-methoxy-benzoyl)-1,2,3,4-tetrahydro-isoquinolin-7-yl]-propionamide], for which, at HDAC-1 (read-out: HDAC-1 IC50), the IC50 was in the range of 100 to 1000 nM. In addition, the AC50 in assay [1] is more than 1000 nM.

Regarding `Cc1[nH]c2ccccc2c1CC(=O)N1CCc2ccc(/C=C/C(=O)NO)cc2C1` [Example 61, (E)-N-Hydroxy-3-{2-[2-(2-methyl-1H-indol-3-yl)-acetyl]-1,2,3,4-tetrahydro-isoquinolin-7-yl}-acrylamide], the IC50 on HDAC-1 (read-out: HDAC-1 IC50) is less than 100 nM. The same compound gave an AC50 in assay [1] of more than 1000 nM.

On to `Cc1[nH]c2ccccc2c1CC(=O)N1CCc2ccc(CCC(=O)NO)cc2C1` [Example 62, N-Hydroxy-3-{2-[2-(2-methyl-1H-indol-3-yl)-acetyl]-1,2,3,4-tetrahydro-isoquinolin-7-yl}-propionamide], for which, on HDAC-1 (read-out: HDAC-1 IC50), the IC50 is less than 100 nM. Also, the AC50 in assay [1] is more than 1000 nM.

As to `O=C(/C=C/c1ccc2c(c1)CN(C(=O)Cc1ccccc1)CC2)NO` [Example 63, (E)-N-Hydroxy-3-(2-phenylacetyl-1,2,3,4-tetrahydro-isoquinolin-7-yl)-acrylamide], the IC50 on HDAC-1 (read-out: HDAC-1 IC50) was less than 100 nM. Besides, the AC50 in assay [1] was more than 1000 nM.

On to `Cc1ccc(CC(=O)N2CCc3ccc(/C=C/C(=O)NO)cc3C2)cc1` [Example 64, (E)-N-Hydroxy-3-[2-(2-p-tolyl-acetyl)-1,2,3,4-tetrahydro-isoquinolin-7-yl]-acrylamide], for which, on HDAC-1 (read-out: HDAC-1 IC50), the IC50 was less than 100 nM. Also, the AC50 in assay [1] is more than 1000 nM.

With `COc1ccc(CC(=O)N2CCc3ccc(/C=C/C(=O)NO)cc3C2)cc1` [Example 65, (E)-N-Hydroxy-3-{2-[2-(4-methoxy-phenyl)-acetyl]-1,2,3,4-tetrahydro-isoquinolin-7-yl}-acrylamide], the IC50 at HDAC-1 (read-out: HDAC-1 IC50) is less than 100 nM. Also, the AC50 in assay [1] is more than 1000 nM.

Consider `O=C(/C=C/c1ccc2c(c1)CN(C(=O)Cc1ccc(Cl)cc1)CC2)NO` [Example 66, (E)-3-{2-[2-(4-Chloro-phenyl)-acetyl]-1,2,3,4-tetrahydro-isoquinolin-7-yl}-N-hydroxy-acrylamide], for which, at HDAC-1 (read-out: HDAC-1 IC50), the IC50 is less than 100 nM. For the same compound, the AC50 in assay [1] is more than 1000 nM.

With `O=C(/C=C/c1ccc2c(c1)CN(C(=O)Cc1ccc(Cl)c(Cl)c1)CC2)NO` [Example 67, (E)-3-{2-[2-(3,4-Dichloro-phenyl)-acetyl]-1,2,3,4-tetrahydro-isoquinolin-7-yl}-N-hydroxy-acrylamide], the IC50 at HDAC-1 (read-out: HDAC-1 IC50) was less than 100 nM. In assay [1], this compound gave an AC50 of more than 1000 nM.

`O=C(/C=C/c1ccc2c(c1)CCN(CCc1c[nH]c3ccccc13)C2)NO` [Example 68, (E)-N-Hydroxy-3-{2-[2-(1H-indol-3-yl)-ethyl]-1,2,3,4-tetrahydro-isoquinolin-6-yl}-acrylamide]: the IC50 on HDAC-1 (read-out: HDAC-1 IC50) was less than 100 nM. This compound came in with an AC50 in assay [1] of more than 1000 nM.

Take `O=C(/C=C/c1ccc2c(c1)CCN(CCc1cnn3ccccc13)C2)NO` [Example 69, (E)-N-Hydroxy-3-[2-(2-pyrazolo[1,5-a]pyridin-3-yl-ethyl)-1,2,3,4-tetrahydro-isoquinolin-6-yl]-acrylamide]: the IC50 at HDAC-1 (read-out: HDAC-1 IC50) was less than 100 nM. The AC50 in assay [1] was more than 1000 nM.

Regarding `Cc1[nH]c2ccccc2c1CCN1CCc2cc(/C=C/C(=O)NO)ccc2C1` [Example 70, (E)-N-Hydroxy-3-{2-[2-(2-methyl-1H-indol-3-yl)-ethyl]-1,2,3,4-tetrahydro-isoquinolin-6-yl}-acrylamide], the IC50 on HDAC-1 is less than 100 nM. Moreover, in assay [1], the half-maximal activity concentration (AC50) lay within 100 to 1000 nM.
